We go through one compound from patent US20230310453A1, “METHODS FOR EXTRACTING NEUTROPHIL SERINE PROTEASES AND TREATING DIPEPTIDYL PEPTIDASE 1-MEDIATED CONDITIONS” (INSMED, INC., priority 2020, published 2023).

Common to all, as to format: in vivo, human
The subject of assay [1] is patients with non-cystic fibrosis bronchiectasis (NCFBE). Briefly: Phase 2 randomized, double-blind, placebo-controlled trial: pulmonary exacerbations. The settings on record: for reduction in the frequency of pulmonary exacerbations as compared to placebo: once daily 24 weeks; for time to the first pulmonary exacerbation (primary end point): vs placebo. An excerpt:
We have conducted a phase 2, randomized, double-blind, placebo-controlled trial to assess the efficacy, safety and tolerability, and pharmacokinetics of (2S)—N-{(1S)-1-cyano-2-[4-(3-methyl-2-oxo-2,3-dihydro-1,3-benzoxazol-5-yl) phenyl] ethyl}-1,4-oxazepane-2-carboxamide (brensocatib) administered once daily for 24 weeks in patients with non-cystic fibrosis bronchiectasis (NCFBE). See the details and results of the trial in N Engl J Med. 383(22):2127-2137 (2020); incorporated herein by reference in its entirety for all purposes.
In the trial, subjects were randomized in a 1:1:1 ratio to 3 treatment arms to receive either (i) 10 mg brensocatib once daily; (ii) 25 mg brensocatib once daily, or (iii) matching placebo once daily. Following a screening visit (Visit 1) and a screening period of up to 6 weeks, subjects were randomized at Visit 2 (Day 1, “Baseline”) and returned thereafter for study visits at 2 weeks (Visit 3), 4 weeks (Visit 4), 8 weeks (Visit 5), 12 weeks (Visit 6), 16 weeks (Visit 7), 20 weeks (Visit 8), 24 weeks (Visit 9, end of treatment) and 28 weeks (Visit 10, end of study). During each visit, assessments and procedures were performed, including collection of blood and sputum samples at baseline and weeks 2, 4, 12, 24, and 28 for biomarker assessment. Study treatment occurred between Visits 2-9. The time to the first pulmonary exacerbation (primary end point), the rate of pulmonary exacerbations (secondary end point), change in concentration of active NE in sputum, and safety were assessed. […] Specifically, patients treated with brensocatib experienced a 36% reduction in the 10 mg arm (p=0.04) and a 25% reduction in the 25 mg arm (p=0.17).

Assay [2] deals with active CatG. In words: Active CatG concentration in patients' sputum samples (kinetic CatG assay). The conditions noted are these: for % reduction from baseline in sputum samples, active CatG: week 4, reduction in geometric mean. How it is done: CatG activity was measured in an enzymatic assay using an exogenous peptide substrate. Cleavage of the substrate generated the chromophore or fluorophore reaction product, p-Nitroaniline (pNA), 6-Carboxytetramethylrhodamine (6-TAMRA) or 7-Methoxycoumarin-4-acetic acid (MCA). The initial rate of this reaction is proportional to the amount of active CatG in a sample and was measured in absorbance (ABS) or fluorescence (RFU), depending on the substrate, and converted to the concentration of active CatG in the sample. Specifically, standards were created via serial dilution of stock human CatG protein (Sigma, Cat. No C4428-.25UN) in a standard diluent which matched the ratio of lysis buffer to Enzyme Buffer (sample diluent) of the sample dilutions on plate. Sample dilutions were created on the plate using Enzyme Buffer as the diluent and/or run neat. […] The plate was immediately read at appropriate wavelength according to Table 1B post substrate addition in kinetic mode every 5 minutes for 1.5 hours at 37° C. on a BioTek's Synergy Neo or BioTek's Synergy HIM plate reader with Gen5 Software. […]
(§1) In the trial, subjects were randomized in a 1:1:1 ratio to 3 treatment arms to receive either (i) 10 mg brensocatib once daily; (ii) 25 mg brensocatib once daily, or (iii) matching placebo once daily. […] The time to the first pulmonary exacerbation (primary end point), the rate of pulmonary exacerbations (secondary end point), change in concentration of active NE in sputum, and safety were assessed. […]
In this example, we further determined the changes from baseline in the concentrations of active PR3 and CatG in the same sputum samples obtained from the patients in the three treatment arms using the kinetic PR3 and CatG assays described in the previous examples, and compared the changes with those of active NE. Additionally, we extracted NE and PR3 from the white blood cells (WBCs) derived from the patients' blood samples, and determined the changes from baseline in the concentrations of active NE and PR3 in the WBC samples using the methods described in Example 7. […]

The subject of assay [3] is active NE. Briefly: Active NE concentration in patients' sputum samples. The settings on record: for % reduction from baseline in sputum samples, active NE: week 4, reduction in geometric mean. How it is done:
(§2) In the NE kinetic assay, an exogenous peptide substrate with high specificity for NE (shown in Table 1A) was cleaved by NE present in the sample, generating a fluorophore reaction product 7-amino 4-methyl coumarin (AMC). The initial rate of this reaction, which is proportional to the amount of active NE in the sample, was measured in relative fluorescence units (RFU) and converted to the concentration of active NE in the sample. Specifically, standards were created via serial dilution of Human NE Stock Protein (Sigma, Cat. No E8140-1UN, see Table 1A) in a standard diluent, which matched the ratio of lysis buffer to Enzyme Buffer (sample diluent) of the sample dilutions on a multi-well plate. Sample dilutions were created on the plate using Enzyme Buffer as the diluent. A 1:25 dilution of either DMSO or NE inhibitor (Abcam, Cat. No ab142154, final concentration 80 μM) in Assay Buffer was added to all wells and allowed to incubate at 37° C. for 15 minutes. […] The plate was immediately read at 350/450 nm (Excitation/Emission) post substrate addition in kinetic mode every 5 minutes for up to 3 hours (minimum 30 minutes) at 37° C. on a BioTek Gen5 Plate Reader. The raw data of the readings were exported into an Excel file for data analysis described below.
as §1
(§3) In this example, we further determined the changes from baseline in the concentrations of active PR3 and CatG in the same sputum samples obtained from the patients in the three treatment arms using the kinetic PR3 and CatG assays described in the previous examples, and compared the changes with those of active NE. […]

The test system of assay [4] is active NE. In words: Active NE concentration in patients' WBC samples (kinetic NE assay). How it is done: as §2
(§4) After NE and PR3 are extracted from a WBC pellet using a multi-step repeated pellet lysis process, total NE and PR3 activity in cell lysates may be determined by individually assaying each cell lysate from each lysis step for the enzyme activity and calculating the total activity. Alternatively, the total activity may be determined by pooling the cell lysates for a single NE or PR3 activity assay. […]
as §1

The subject of assay [5] is active PR3. Briefly: Active PR3 concentration in patients' WBC samples (kinetic PR3 assay). The settings on record: for % reduction from baseline in WBC samples, active PR3: week 4, reduction in arithmetic mean. The procedure: (§5) Except for using an exogenous peptide substrate specific for PR3 instead of NE, the PR3 kinetic assay is based on the same principle as the NE kinetic assay described above. Cleavage of PR3 Substrate by PR3 present in the sample generated the fluorophore reaction product 2-Aminobenzoyl or Anthraniloyl (Abz). The initial rate of this reaction, which is proportional to the amount of active PR3 in the sample, was measured in RFU and converted to the concentration of active PR3 in the sample. Specifically, standards were created via serial dilution of Human PR3 Stock Protein (Sigma, Cat. No SRP6309-25UG, see Table 1A) in a standard diluent which matched the ratio of lysis buffer to Enzyme Buffer (sample diluent) of the sample dilutions on a multi-well plate. Sample dilutions were created on the plate using Enzyme Buffer as the diluent. A 1:20 dilution of either DMSO or PR3 inhibitor (Abcam, Cat. No ab146184, final concentration 500 μM) in Assay Buffer was added to all wells and allowed to incubate at 37° C. for 15 minutes. Addition of DMSO was used as a placeholder in case future testing required addition of inhibitors for subtraction of nonspecific activity-induced cleavage. Following incubation, PR3 Substrate (Abz-VADCADQ-Lys(DNP), final concentration 100 μM) diluted in Assay Buffer was added to the sample and control wells in that order, and briefly mixed via pipetting 2-3 times. The plate was immediately read at 340/430 nm (Excitation/Emission) post substrate addition in kinetic mode every 5 minutes for up to 3 hours (minimum 30 minutes) at 37° C. on a BioTek Gen5 Plate Reader. The raw data of the readings were exported into an Excel file for data analysis described below.
as §4

The subject of assay [6] is active PR3. In words: Active PR3 concentration in patients' sputum samples (kinetic PR3 assay). The settings on record: for % reduction from baseline in sputum samples, active PR3: week 4, reduction in geometric mean. The procedure:
as §5, with “Addition of DMSO was used as a placeholder in case future testing required addition of inhibitors for subtraction of nonspecific activity-induced cleavage. Following incubation, PR3 Substrate (Abz-VADCADQ-Lys(DNP), final concentration 100 μM) diluted in Assay Buffer was added to the sample and control wells in that order, and briefly mixed via pipetting 2-3 times.” left out
as §1, §3

`Cn1c(=O)oc2ccc(-c3ccc(C[C@@H](C#N)NC(=O)[C@@H]4CNCCCO4)cc3)cc21` [brensocatib, (2S)—N-{(1S)-1-cyano-2-[4-(3-methyl-2-oxo-2,3-dihydro-1,3-benzoxazol-5-yl)phenyl]ethyl}-1,4-oxazepane-2-carboxamide]: the “reduction in the frequency of pulmonary exacerbations as compared to placebo” value in assay [1] (10 mg arm, p=0.04) is on record as 36%; in assay [1] (25 mg arm, p=0.17) it was 25%. The “time to the first pulmonary exacerbation (primary end point)” value in assay [1] (10 mg once daily for 24 weeks, p=0.03) is “prolonged the time to the first exacerbation”; in assay [1] (25 mg once daily for 24 weeks, p=0.04), “prolonged the time to the first exacerbation”. Further, the “change from baseline in sputum concentration of active CatG (time course)” value in assay [2] (10 mg and 25 mg arms, FIG. 13C) is “reduced by brensocatib treatment by week 4 in a dose-dependent manner”. For the same compound, the “% reduction from baseline in sputum samples, active CatG” value in assay [2] (10 mg daily) turned out to be 90%; in assay [2] (25 mg daily), 93%. For the same compound, in assay [3] (10 mg and 25 mg arms, FIG. 13A), the “change from baseline in sputum concentration of active NE (time course)” value was “reduced by brensocatib treatment by week 4 in a dose-dependent manner”. The “% reduction from baseline in sputum samples, active NE” value came out at 86% in assay [3] (10 mg daily) and 91% in assay [3] (25 mg daily). The “change from baseline in concentration of active NE in WBC samples (time course)” value in assay [4] (10 mg and 25 mg arms, 24-week treatment, FIG. 14A) is on record as “reduced by brensocatib treatment by week 4 in a dose-dependent manner”. Moreover, the “% reduction from baseline in WBC samples, active NE” value in assay [4] (10 mg daily, week 4, reduction in arithmetic mean) is 19%. For the same compound, the “time for reduced active NE concentrations in WBC samples to recover to baseline levels after the end of the treatment period” value in assay [4] (after 24-week treatment, FIG. 14A) was “about 4 weeks”. The “change from baseline in concentration of active PR3 in WBC samples (time course)” value in assay [5] (10 mg and 25 mg arms, FIG. 14B) is “reduced by brensocatib treatment to a lesser extent than the active NE concentrations”. Also, the “% reduction from baseline in WBC samples, active PR3” value in assay [5] (10 mg daily) is recorded as “No reduction”; in assay [5] (25 mg daily), 34%. The “change from baseline in sputum concentration of active PR3 (time course)” value in assay [6] (10 mg and 25 mg arms, FIG. 13B) was “reduced by brensocatib treatment by week 4 in a dose-dependent manner”. Moreover, the “% reduction from baseline in sputum samples, active PR3” value in assay [6] (10 mg daily) came to 21%; in assay [6] (25 mg daily), 53%.
